According to patent US7553824B2, “Kit for determining polysaccharide-binding activity of mononuclear cells present in peripheral blood” (Ajinomoto Co., Inc., priority 2004, dated 2009):
Read-outs that look alike come from different tables or passages of the source.

Assays:
[1] = tested on: blood cells (monocytes, granulocytes, lymphocytes); assay: Test on binding-inhibitory effect of lentinan, mouse whole blood; parameters: species or system ICR mice; details: 50 μg/mL un-labeled lentinan added before 5-40 μg/mL fluorescein-labeled lentinan, one hour
Protocol: Upon the determination of the binding ability and prior to the dispensation of the whole blood into tubes, a 2 mg/mL lentinan solution diluted 10 times with PBS(−) was introduced into each tube in an amount of 25 μL/tube while ice-cooling the tubes, then the whole blood was dispensed into the tubes in an amount of 65 μL/tube and thereafter, a solution of fluorescein-labeled lentinan was added to each tube in an amount of 10 μL/tube (the final concentration of the lentinan solution for inhibition was set at 50 μg/mL). Then the subsequent operations were carried out according to the same procedures used above in the method for determining the binding ability (the previous section). (The results thus obtained are shown in FIG. 1 (indicated by FL+L50)).

monocytes = assay: Test on binding-inhibitory effect of lentinan, human blood; details: 100 μg/mL lentinan added before 10 μg/mL fluorescein-labeled lentinan, Cases 3 and 4
Protocol: To the human blood sample, there was added the solution of lentinan (reference reagent 2) in a concentration of […], the resulting mixture was cultured at 37° C. for 15 minutes, fluorescein-labeled lentinan was then added thereto in a concentration of 10 μg/mL and the resulting mixture was further cultivated at 37° C. for additional 30 minutes. Thereafter, a PE-labeled antibody (available from Caltag Company) against human CD14 was added thereto, the resulting mixture was cultured at 37° C. for 30 minutes, 2 mL/tube of FACS Lysing Solution (a hemolysis/fixation liquid available from BD Company; diluted 10 times with distilled water) and then the resulting mixture was allowed to stand at room temperature for 10 minutes for the hemolysis of the blood sample. The subsequent operations and analysis were carried out by repeating the same procedures used above in the binding ability-determining method (in the foregoing paragraph) (the results thus obtained are shown in FIG. 7 (indicated by LNT+FL)). The similar analysis was carried out using fluorescein-labeled dextran as a control (reference reagent 1) for the fluorescein-labeled lentinan.

S180 mouse sarcoma cells = details: S180 subcutaneously transplanted, cited from earlier work

## lentinan
[1]
  effect on the binding ability of cells to fluorescein-labeled lentinan: inhibited
monocytes
  effect on binding of fluorescein-labeled lentinan with cells: inhibited
S180 mouse sarcoma cells; C3H mice
  anti-tumor effect: weak anti-tumor effects
S180 mouse sarcoma cells; C57BL/6 mice
  anti-tumor effect: medium anti-tumor effects
S180 mouse sarcoma cells; ICR and BALB/c mice
  anti-tumor effect: higher anti-tumor effects
